Measurements taken from patent US12521439B2, “Methods and materials for modulating Nrf2 pathway” (The General Hospital Corporation, priority 2019, dated 2026).

Tests used:
[1] = tested on: GSCs (GBM8 and BT07); assay: Multiplexed quantitative (TMT) proteomics after OBT treatment; assay type: cell-based, human; settings: 20 h after subtoxic dose, two GSC lines
Experimental: Quantitative Proteomics: Cell pellets were lysed in a buffer of 75 mM NaCl, 50 mM HEPES pH 8.5, 10 mM sodium pyrophosphate, 10 mM sodium fluoride, 10 mM β-glycerophosphate, 10 mM sodium orthovanadate, 10 mM PMSF, Roche complete mini EDTA free protease inhibitors (1 tablet per 20 ml), and 3% SDS. Lysis was achieved by passing the suspension through a 21-gauge needle 20 times. Proteins were prepared for proteomics analysis as described previously. […] Twelve fractions were analyzed by multiplexed quantitative proteomics performed on an Orbitrap Fusion mass spectrometer (Thermo Scientifc) using a Simultaneous Precursor Selection (SPS) based MS3 method. […] For the cell line samples only MS3 with an average signal-to-noise value of larger than 40 per reporter ion as well as with an isolation specificity of larger than 0.75 were considered for quantification. […] A two-step normalization of the protein TMT-intensities was performed by first normalizing the protein intensities over all acquired TMT channels for each protein based on the median average protein intensity calculated for all proteins. To correct for slight mixing errors of the peptide mixture from each sample a median of the normalized intensities was calculated from all protein intensities in each TMT channel and the protein intensities were normalized to the median value of these median intensities. […]

[2] = tested on: CT2A mouse gliomas; assay: Immunophenotyping of tumor-infiltrating immune cells (flow cytometry); assay type: in vivo, C57BL/6 mice
Experimental: The effect of OBT on glioma immunomodulation in vivo was next evaluated. 50,000 CT2A cells expressing Fluc were implanted in the striatum of immunocompetent C57BL/6 mice. Two weeks post-injection, mice were i.p. injected with OBT (7.5 mg/kg body weight/day) or PBS/DMSO control, over 4 days (n=6/group). Mice were sacrificed, brains removed, and tumor tissues dissected out and homogenized. […] OBT increased intratumoral CD8+ cytotoxic T cells with higher levels of both Ki-67 and granzyme B (markers for increased activation of effector cells, abrogation of suppressive immune cells) and decreased CD4+ regulatory T cells (Treg; CD25^+Foxp3^+), typically used by the tumour to escape the immune system, leading to an increase in the ratio of CD8+ T cells over Tregs (FIG. 25B-D). […] CTLA-4, PD-1, Lag-3 and Tim-3 levels (hallmark for exhausted and anergic T cells) were not changed on any of these cells (FIG. 25B; only showing PD-1).

[3] = tested on: HO1, NQO1, TXNRD2 mRNA; assay: qRT-PCR of Nrf2 target genes in cancer cells; assay type: cell-based, human
Experimental: Real-time qRT-PCR: Total RNA isolation from cultured cells was performed using RNeasy kit (Qiagen), followed by reverse transcription with OneScript cDNA synthesis Kit (ABM). mRNA expression of different genes was then analyzed by quantitative PCR using PowerUp SYBR Green Master Mix (Applied Biosystems) and performed using a QuantStudio3 real-time PCR system (Applied Biosystems). Primer sequences for HO1, NQO1, TXNRD2 were obtained from the MGH primer bank and were as follows: HO1 Forward, 5′-[…]-3′ and reverse 5′-[…]-3′; NQO1 Forward 5′-[…]-3′ and reverse 5′-[…]-3′ and Txnrd2 forward 5′-[…]-3 and reverse 5′-[…]. Oligonucleotides were synthesized by the CCIB DNA Core Facility at Massachusetts General Hospital. Expression of human GAPDH was used to mRNA normalization and relative mRNA expression was calculated using the comparative Ct method.

SMILES: COC1=CC(=O)C(O)=C/C1=C/C=C/c1ccccc1 [OBT, (Z)-2-hydroxy-5-methoxy-4-((E)-3-phenylallylidene)cyclohexa-2,5-dien-1-one]
- heme oxygenase 1 (HMOX1; HO1) protein change [1]: top upregulated protein
- CD4+ regulatory T cells (Treg; CD25+Foxp3+) ([2]; 7.5 mg/kg/day i.p. over 4 days): decreased
- Ki-67 and granzyme B in CD8+ T cells ([2]; 7.5 mg/kg/day i.p. over 4 days): higher levels
- dendritic cells ([2]; 7.5 mg/kg/day i.p. over 4 days): significant increase
- intratumoral CD8+ cytotoxic T cells ([2]; 7.5 mg/kg/day i.p. over 4 days): increased
- levels of CD4+ T cells ([2]; 7.5 mg/kg/day i.p. over 4 days): did not change
- number of microglia and macrophages ([2]; 7.5 mg/kg/day i.p. over 4 days): not changed
- ratio of CD8+ T cells over Tregs ([2]; 7.5 mg/kg/day i.p. over 4 days): increase
- CTLA-4, PD-1, Lag-3 and Tim-3 levels ([2]; T cells): not changed
- CD47 ([2]; on all three cell types): significantly downregulated
- PD-L1 ([2]; on microglia, dendritic cells, macrophages): did not have an effect
- NQO1 and TXNRD2 mRNA ([3]; U87 and MDA-MB-231 cells): upregulated
- HO1 mRNA expression ([3]; different cancer cells, 8 hours, normalized to GAPDH): strong increase
